Measured values reported in ChEMBL document CHEMBL4433259, “Rifamycin derivatives active against pathogenic rapidly-growing mycobacteria” (Bioorg Med Chem Lett, 2019).
Active and inactive are the calls of the source. The calls are words filed in the database; no cut-off is given here.

Experiments:
[1] = test system: Mycobacteroides abscessus; assay: Antimycobacterial activity against Mycobacterium abscessus ATCC 19977 assessed as inhibition zone diameter at 3.125 ng after 3 days by disc diffusion method; type: functional
[2] = Antimycobacterial activity against Mycobacterium abscessus subsp. massiliense assessed as reduction in microbial growth by CLSI method; type: functional; details: Mycobacteroides abscessus
[3] = Antimycobacterial activity against Mycobacterium abscessus subsp. bolletii assessed as reduction in microbial growth by CLSI method; type: functional; details: Mycobacteroides abscessus
[4] = test system: Mycolicibacterium fortuitum; assay: Antimycobacterial activity against Mycobacterium fortuitum assessed as reduction in microbial growth by CLSI method; type: functional
Mycobacteroides chelonae = assay: Antimycobacterial activity against Mycobacterium chelonae assessed as reduction in microbial growth by CLSI method; type: functional
[5] = Antimycobacterial activity against Mycobacterium abscessus subsp. abscessus assessed as reduction in microbial growth by CLSI method; type: functional; details: Mycobacteroides abscessus
[6] = test system: Mycolicibacterium smegmatis; assay: Antimycobacterial activity against Mycobacterium smegmatis assessed as reduction in microbial growth by CLSI method; type: functional
[7] = test system: Mycobacteroides abscessus; assay: Antimycobacterial activity against Mycobacterium abscessus ATCC 19977 assessed as inhibition zone diameter at 800 ng after 3 days by disc diffusion method; type: functional
[8] = test system: Mycobacteroides abscessus; assay: Antimycobacterial activity against Mycobacterium abscessus ATCC 19977 assessed as inhibition zone diameter at 400 ng after 3 days by disc diffusion method; type: functional
[9] = test system: Mycobacteroides abscessus; assay: Antimycobacterial activity against Mycobacterium abscessus ATCC 19977 assessed as inhibition zone diameter at 200 ng after 3 days by disc diffusion method; type: functional
[10] = test system: Mycobacteroides abscessus; assay: Antimycobacterial activity against Mycobacterium abscessus ATCC 19977 assessed as inhibition zone diameter at 100 ng after 3 days by disc diffusion method; type: functional
[11] = test system: Mycobacteroides abscessus; assay: Antimycobacterial activity against Mycobacterium abscessus ATCC 19977 assessed as inhibition zone diameter at 50 ng after 3 days by disc diffusion method; type: functional
[12] = test system: Mycobacteroides abscessus; assay: Antimycobacterial activity against Mycobacterium abscessus ATCC 19977 assessed as inhibition zone diameter at 25 ng after 3 days by disc diffusion method; type: functional
[13] = test system: Mycobacteroides abscessus; assay: Antimycobacterial activity against Mycobacterium abscessus ATCC 19977 assessed as inhibition zone diameter at 12.5 ng after 3 days by disc diffusion method; type: functional
[14] = test system: Mycobacteroides abscessus; assay: Antimycobacterial activity against Mycobacterium abscessus ATCC 19977 assessed as inhibition zone diameter at 6.25 ng after 3 days by disc diffusion method; type: functional
[15] = test system: Mycobacteroides abscessus; assay: Antimycobacterial activity against Mycobacterium abscessus ATCC 19977 assessed as inhibition zone diameter at 1.56 ng after 3 days by disc diffusion method; type: functional
[16] = test system: Mycobacteroides abscessus; assay: Antimycobacterial activity against Mycobacterium abscessus FM0058 clinical isolate assessed as inhibition zone diameter at 800 ng after 3 days by disc diffusion method; type: functional
[17] = test system: Mycobacteroides abscessus; assay: Antimycobacterial activity against Mycobacterium abscessus FM0058 clinical isolate assessed as inhibition zone diameter at 400 ng after 3 days by disc diffusion method; type: functional
[18] = test system: Mycobacteroides abscessus; assay: Antimycobacterial activity against Mycobacterium abscessus FM0058 clinical isolate assessed as inhibition zone diameter at 200 ng after 3 days by disc diffusion method; type: functional
[19] = test system: Mycobacteroides abscessus; assay: Antimycobacterial activity against Mycobacterium abscessus FM0058 clinical isolate assessed as inhibition zone diameter at 100 ng after 3 days by disc diffusion method; type: functional
[20] = test system: Mycobacteroides abscessus; assay: Antimycobacterial activity against Mycobacterium abscessus FM0058 clinical isolate assessed as inhibition zone diameter at 50 ng after 3 days by disc diffusion method; type: functional
[21] = test system: Mycobacteroides abscessus; assay: Antimycobacterial activity against Mycobacterium abscessus FM0058 clinical isolate assessed as inhibition zone diameter at 25 ng after 3 days by disc diffusion method; type: functional
[22] = test system: Mycobacteroides abscessus; assay: Antimycobacterial activity against Mycobacterium abscessus FM0058 clinical isolate assessed as inhibition zone diameter at 12.5 ng after 3 days by disc diffusion method; type: functional
[23] = test system: Mycobacteroides abscessus; assay: Antimycobacterial activity against Mycobacterium abscessus FM0058 clinical isolate assessed as inhibition zone diameter at 6.25 ng after 3 days by disc diffusion method; type: functional
[24] = test system: Mycobacteroides abscessus; assay: Antimycobacterial activity against Mycobacterium abscessus FM0058 clinical isolate assessed as inhibition zone diameter at 3.125 ng after 3 days by disc diffusion method; type: functional
[25] = test system: Mycobacteroides abscessus; assay: Antimycobacterial activity against Mycobacterium abscessus FM0058 clinical isolate assessed as inhibition zone diameter at 1.56 ng after 3 days by disc diffusion method; type: functional
[26] = test system: Mycobacteroides abscessus; assay: Antimycobacterial activity against Mycobacterium abscessus ATCC 19977 assessed as inhibition zone diameter at <3 ng after 3 days by disc diffusion method; type: functional, organism-based
[27] = test system: Mycobacteroides abscessus; assay: Antimycobacterial activity against Mycobacterium abscessus FM0058 clinical isolate assessed as inhibition zone diameter at <3 ng after 3 days by disc diffusion method; type: functional, organism-based
[28] = Drug metabolism in Mycobacterium abscessus ATCC 19977 assessed as C23 ribosylated derivative formation by LC/MS analysis relative to control; type: ADME; details: Mycobacteroides abscessus
[29] = Drug metabolism in Mycobacterium abscessus ATCC 19977 assessed as adenine ribosylated diphosphate derivative formation by LC/MS analysis; type: ADME; details: Mycobacteroides abscessus

With CO[C@H]1/C=C/O[C@@]2(C)Oc3c(C)c(O)c4c(c3C2=O)C(=O)C(N2CCOCC2)=C(NC(=O)/C(C)=C\C=C\[C@H](C)[C@H](O)[C@@H](C)[C@@H](O)[C@@H](C)[C@H](OC(=O)NC2CCN(Cc3ccccc3)CC2)[C@@H]1C)C4=O the “diameter of the inhibition zone (DIZ)” value [1] was 0 mm, the MIC [2] was 0.25 µg/mL and the MIC [3] was 0.0625 µg/mL. For the same molecule, the MIC [4] was < 0.03 µg/mL, the MIC (Mycobacteroides chelonae) was < 0.03 µg/mL and the MIC [5] was < 0.03 µg/mL. For the same molecule, the MIC [6] was 0.12 µg/mL, the “diameter of the inhibition zone (DIZ)” value [7] was >30 mm and the “diameter of the inhibition zone (DIZ)” value [8] was >30 mm. The “diameter of the inhibition zone (DIZ)” value [9] was >30 mm, the “diameter of the inhibition zone (DIZ)” value [10] was 24 mm and the “diameter of the inhibition zone (DIZ)” value [11] was 21 mm. The “diameter of the inhibition zone (DIZ)” value [12] was 16 mm, the “diameter of the inhibition zone (DIZ)” value [13] was 13 mm and the “diameter of the inhibition zone (DIZ)” value [14] was 0 mm. The “diameter of the inhibition zone (DIZ)” value [15] was 0 mm, the “diameter of the inhibition zone (DIZ)” value [16] was >30 mm and the “diameter of the inhibition zone (DIZ)” value [17] was >30 mm. For the same molecule, the “diameter of the inhibition zone (DIZ)” value [18] was 29 mm, the “diameter of the inhibition zone (DIZ)” value [19] was 24 mm and the “diameter of the inhibition zone (DIZ)” value [20] was 22 mm. For the same molecule, the “diameter of the inhibition zone (DIZ)” value [21] was 20 mm, the “diameter of the inhibition zone (DIZ)” value [22] was 16 mm and the “diameter of the inhibition zone (DIZ)” value [23] was 11 mm. The “diameter of the inhibition zone (DIZ)” value [24] was 0 mm, the “diameter of the inhibition zone (DIZ)” value [25] was 0 mm and the “diameter of the inhibition zone (DIZ)” value [26] was “inactive”. For the same molecule, the “diameter of the inhibition zone (DIZ)” value [27] was “inactive”, the Drug metabolism [28] was “Metabolite_Notdetected” and the Drug metabolism [29] was “Metabolite_Notdetected”.
